Data published in ChEMBL document CHEMBL3045927, “Synthesis of 4-methyl-1,2,3-thiadiazole derivatives via Ugi reaction and their biological activities” (2010).

Legend:
Type in all cases: functional
[1] = system: Pyricularia grisea; assay: Fungicidal activity against Magnaporthe grisea at 50 ug/ml by growth inhibition method; parameters: scale not given: the % may be the effect or the level left
[2] = system: Thanatephorus cucumeris; assay: Fungicidal activity against Thanatephorus cucumeris at 50 ug/ml by growth inhibition method; parameters: scale not given: the % may be the effect or the level left
[3] = system: Fusarium graminearum; assay: Fungicidal activity against Fusarium graminearum at 50 ug/ml by growth inhibition method; parameters: scale not given: the % may be the effect or the level left
[4] = system: Botryosphaeria berengeriana; assay: Fungicidal activity against Botryosphaeria berengeriana at 50 ug/ml by growth inhibition method; parameters: scale not given: the % may be the effect or the level left
[5] = system: Alternaria solani; assay: Fungicidal activity against Alternaria solani at 50 ug/ml by growth inhibition method; parameters: scale not given: the % may be the effect or the level left
[6] = system: Mycosphaerella arachidis; assay: Fungicidal activity against Mycosphaerella arachidis at 50 ug/ml by growth inhibition method; parameters: scale not given: the % may be the effect or the level left
[7] = system: Cercospora beticola; assay: Fungicidal activity against Cercospora beticola at 50 ug/ml by growth inhibition method; parameters: scale not given: the % may be the effect or the level left
[8] = system: Nicotiana tabacum; assay: Induction of systemic acquired resistance activity in TMV infected-Nicotiana tabacum (tobacco) leaves at 50 ug/ml
[9] = system: Nicotiana tabacum; assay: Induction of systemic acquired resistance activity in TMV infected-Nicotiana tabacum (tobacco) leaves at 100 ug/ml
[10] = system: Tobacco mosaic virus; assay: In vivo antiviral activity against Tobacco mosaic virus (TMV) infected tobacco leaves assessed as inactivation effect at 100 ug/ml co-treated with virus for 30 min before inoculation onto leaves measured at 2-3 days after viral challenge
[11] = system: Tobacco mosaic virus; assay: In vivo antiviral activity against Tobacco mosaic virus (TMV) infected tobacco leaves assessed as inactivation effect at 500 ug/ml co-treated with virus for 30 min before inoculation onto leaves measured at 2-3 days after viral challenge
[12] = system: Tobacco mosaic virus; assay: In vivo antiviral activity against Tobacco mosaic virus (TMV) infected tobacco leaves assessed as curative effect at 100 ug/ml treated after viral inoculation measured at 2-3 days after viral challenge
[13] = system: Tobacco mosaic virus; assay: In vivo antiviral activity against Tobacco mosaic virus (TMV) infected tobacco leaves assessed as curative effect at 500 ug/ml treated after viral inoculation measured at 2-3 days after viral challenge
[14] = system: Tobacco mosaic virus; assay: In vivo antiviral activity against Tobacco mosaic virus (TMV) infected tobacco leaves assessed as protective effect at 100 ug/ml treated 12 hr before viral inoculation measured at 2-3 days after viral challenge
[15] = system: Tobacco mosaic virus; assay: In vivo antiviral activity against Tobacco mosaic virus (TMV) infected tobacco leaves assessed as protective effect at 500 ug/ml treated 12 hr before viral inoculation measured at 2-3 days after viral challenge
[16] = system: Tobacco mosaic virus; assay: In vitro antiviral activity against Tobacco mosaic virus (TMV) infected tobacco leaves at 100 ug/ml
[17] = system: Tobacco mosaic virus; assay: In vitro antiviral activity against Tobacco mosaic virus (TMV) infected tobacco leaves at 500 ug/ml
[18] = system: Phytophthora infestans; assay: Fungicidal activity against Phytophthora infestans at 50 ug/ml by growth inhibition method; parameters: scale not given: the % may be the effect or the level left
[19] = system: Rhizoctonia solani; assay: Fungicidal activity against Rhizoctonia solani at 50 ug/ml by growth inhibition method; parameters: scale not given: the % may be the effect or the level left
[20] = system: Colletotrichum lagenaria; assay: Fungicidal activity against Colletotrichum lagenaria at 50 ug/ml by growth inhibition method; parameters: scale not given: the % may be the effect or the level left
[21] = system: Fusarium oxysporum; assay: Fungicidal activity against Fusarium oxysporum at 50 ug/ml by growth inhibition method; parameters: scale not given: the % may be the effect or the level left

| Structure (SMILES) | Activity [1] [%] | Activity [2] [%] | Activity [3] [%] | Activity [4] [%] | Activity [5] [%] | Activity [6] [%] | Activity [7] [%] | Activity [8] [%] | Activity [9] [%] | Activity [10] [%] | Activity [11] [%] | Activity [12] [%] | Activity [13] [%] | Activity [14] [%] | Activity [15] [%] | inhibition at 100 µg/mL [16] [%] | inhibition at 500 µg/mL [17] [%] | Activity [18] [%] | Activity [19] [%] | Activity [20] [%] | also measured |
| --- | --- | --- | --- | --- | --- | --- | --- | --- | --- | --- | --- | --- | --- | --- | --- | --- | --- | --- | --- | --- | --- |
| Cc1ccc(N(C(=O)c2snnc2C)C(C(=O)NC2CCCCC2)c2ccccc2C(F)(F)F)cc1F (stereo unspecified) | 29 | 11 | 15 | 23 | 44 | 29 | 75 | 57 | 45 | 26 | 39 | 13 | 30 | 49 | 51 | 33 | 48 | 53 | 37 | 47 |  |
| Cc1ccc(N(C(=O)c2snnc2C)C(C(=O)NC2CCCCC2)c2cccc(C(F)(F)F)c2)cc1F (stereo unspecified) | 14 | 74 | 62 | 85 | 100 | 71 | 0 | 68 | 38 | 21 | 31 | 28 | 42 | 19 | 54 | 29 | 67 | 88 | 97 | 95 |  |
| Cc1ccc(N(C(=O)c2snnc2C)C(C(=O)NC2CCCCC2)c2cccc([N+](=O)[O-])c2)cc1F (stereo unspecified) | 14 | 45 | 28 | 32 | 0 | 57 | 33 | 50 | 68 | 48 | 62 | 39 | 56 | 27 | 55 | 44 | 58 | 11 | 30 | 10 |  |
| Cc1ccc(N(C(=O)c2snnc2C)C(C(=O)NC2CCCCC2)c2ccc([N+](=O)[O-])cc2)cc1F (stereo unspecified) | 0 | 0 | 34 | 0 | 0 | 14 | 17 | 36 | 68 | 48 | 57 | 36 | 59 | 18 | 38 | 26 | 39 | 16 | 40 | 0 |  |
| Cc1ccc(N(C(=O)c2snnc2C)C(C(=O)NC2CCCCC2)c2ccccc2C)cc1F (stereo unspecified) | 57 | 16 | 34 | 53 | 44 | 79 | 67 | 63 | 58 | 27 | 60 | 18 | 47 | 23 | 35 | 23 | 52 | 47 | 51 | 43 |  |
| Cc1ccc(N(C(=O)c2snnc2C)C(C(=O)NC2CCCCC2)c2ccc(O)cc2)cc1F (stereo unspecified) | 14 | 14 | 24 | 0 | 0 | 36 | 17 | 44 | 65 | 65 | 68 | 34 | 43 | 40 | 55 | 20 | 70 | 0 | 40 | 5 |  |
| Cc1ccc(N(C(=O)c2snnc2C)C(C(=O)NC2CCCCC2)c2ccccc2)cc1F (stereo unspecified) | 14 | 0 | 45 | 0 | 0 | 21 | 33 | 69 | 54 | 11 | 29 | 47 | 81 | 41 | 49 | 19 | 19 | 5 | 28 | 14 |  |
| Cc1ccc(N(C(=O)c2snnc2C)C(C(=O)NC2CCCCC2)c2ccccc2)cc1Cl (stereo unspecified) | 40 | 17 |  | 22 | 32 | 61 | 36 |  |  |  |  |  |  |  |  | 19 | 24 | 32 | 63 | 9 | Activity [21]: 25% |
| Cc1ccc(N(C(=O)c2snnc2C)C(C(=O)NC2CCCCC2)c2ccccc2Cl)cc1Cl (stereo unspecified) | 40 | 12 |  | 13 | 26 | 48 | 27 |  |  |  |  |  |  |  |  | 19 | 20 | 26 | 67 | 5 | Activity [21]: 0% |
| Cc1ccc(N(C(=O)c2snnc2C)C(C(=O)NC2CCCCC2)c2cccc(Cl)c2)cc1Cl (stereo unspecified) | 20 | 12 |  | 26 | 21 | 39 | 18 |  |  |  |  |  |  |  |  | 21 | 29 | 21 | 65 | 9 | Activity [21]: 11% |
| NC(=O)c1ncn([C@@H]2O[C@H](CO)[C@@H](O)[C@H]2O)n1 [RIBAVIRIN] |  |  |  |  |  |  |  | 40 | 10 | 57 | 71 | 14 | 46 | 40 | 44 | 28 | 38 |  |  |  |  |
| Cc1ccc(NC(=O)c2snnc2C)cc1Cl [TIADINIL] |  |  |  |  |  |  |  | 47 | 49 | 70 | 70 | 12 | 44 | 35 | 48 | 37 | 51 |  |  |  |  |
